Experiment [1] concerns the target T1, MKNK1 (Homo sapiens, UniProt Q9BUB5, T385D).
T1 construct: GST (N); purchased Carna Biosciences 02-145; host or cells: insect cells (baculovirus expression system)
As to the kind of experiment: MKNK1 kinase high ATP assay (TR-FRET-based). It is filed as biochemical. The conditions noted are these: Table 2c; 2 mM ATP, 15 min preincubation. The gist of the method:
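GST-tagged full-length human MKNK1 (aa 1-424, T344D) from insect cells, preincubated with compound 15 min at 22 °C. Reaction 30 min at 22 °C with 2 mM ATP and 0.06 μM biotinylated peptide in HEPES pH 7.5, Mg2+, DTT. Phosphopeptide detected by TR-FRET (665/622 ratio) with anti-pS6 (pSer236) antibody; normalised to no-inhibitor and no-enzyme controls.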
On the technique in general: Time-resolved FRET reads energy transfer from a long-lived donor to a nearby acceptor.

The target of experiment [2] is T1, MKNK1. As to the kind of experiment: MKNK1 kinase assay (MKNK1 TR-FRET assay). The note with it: Table 1c; 10 μM ATP, 15 min preincubation. It counts as biochemical.

T1 sequence (Q9BUB5 1-424 isoform Q9BUB5-2 T344D): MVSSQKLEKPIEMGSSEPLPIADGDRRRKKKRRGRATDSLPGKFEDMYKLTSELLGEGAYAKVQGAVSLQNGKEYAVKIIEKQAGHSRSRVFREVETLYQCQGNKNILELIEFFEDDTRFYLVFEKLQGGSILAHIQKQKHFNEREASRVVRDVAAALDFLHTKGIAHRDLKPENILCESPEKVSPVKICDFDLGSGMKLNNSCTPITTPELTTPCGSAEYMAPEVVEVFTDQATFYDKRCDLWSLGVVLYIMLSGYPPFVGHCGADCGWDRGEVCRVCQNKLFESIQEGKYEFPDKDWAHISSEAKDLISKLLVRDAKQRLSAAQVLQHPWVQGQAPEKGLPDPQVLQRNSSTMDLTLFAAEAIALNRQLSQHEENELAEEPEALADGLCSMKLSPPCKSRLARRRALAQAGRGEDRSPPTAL

For `N[C@H]1C[C@H](Oc2ccc3ncc(-c4cc5c(N6CCNCC6)nccc5o4)n3n2)C1` [III-103, trans-3-({3-[4-(Piperazin-1-yl)furo[3,2-c]pyridin-2-yl]imidazo[1,2-b]pyridazin-6-yl}oxy)cyclobutanamine], the IC50 at MKNK1 [1] was 18.6 nM; on MKNK1 [2] it was 9.1 nM.

Take `C[C@@H]1CN(c2nccc3oc(-c4cnc5ccc(O[C@H]6C[C@H](N)C6)nn45)cc23)C[C@H](C)O1` [III-104, trans-3-[(3-{4-[(2R,6S)-2,6-Dimethylmorpholin-4-yl]furo[3,2-c]pyridin-2-yl}imidazo[1,2-b]pyridazin-6-yl)oxy]cyclobutanamine]: the IC50 came out at 61.5 nM against MKNK1 [1] and 18.7 nM against MKNK1 [2].

With `CN(CCCO)c1nccc2oc(-c3cnc4ccc(O[C@H]5C[C@H](N)C5)nn34)cc12` [III-105, 3-[(2-{6-[(trans-3-Aminocyclobutyl)oxy]imidazo[1,2-b]pyridazin-3-yl}furo-[3,2-c]pyridin-4-yl)(methyl)amino]propan-1-ol], the values for the IC50 at MKNK1 [1] and against MKNK1 [2] were 7.3 nM and 2.1 nM, respectively.

Take `N[C@H]1C[C@H](Oc2ccc3ncc(-c4cc5c(N6CCN(c7ccccc7)CC6)nccc5o4)n3n2)C1` [III-106, trans-3-({3-[4-(4-Phenylpiperazin-1-yl)furo[3,2-c]pyridin-2-yl]imidazo[1,2-b]pyridazin-6-yl}oxy)cyclobutanamine]: the IC50 was determined as 9.2 nM at MKNK1 [1] and 10.2 nM against MKNK1 [2].

Regarding `C[C@@H]1COCCN1c1nccc2oc(-c3cnc4ccc(O[C@H]5C[C@H](N)C5)nn34)cc12` [III-107, trans-3-[(3-{4-[(3R)-3-Methylmorpholin-4-yl]furo[3,2-c]pyridin-2-yl}imidazo[1,2-b]pyridazin-6-yl)oxy]cyclobutanamine], the values for the IC50 against MKNK1 [1] and on MKNK1 [2] were 11.8 nM and 4.8 nM, respectively.

Consider `CCN(CCOC(C)(C)C)c1nccc2oc(-c3cnc4ccc(O[C@H]5C[C@H](N)C5)nn34)cc12` [III-108, 2-{6-[(trans-3-Aminocyclobutyl)oxy]imidazo[1,2-b]pyridazin-3-yl}-N-(2-tert-butoxyethyl)-N-ethylfuro[3,2-c]pyridin-4-amine], for which the IC50 against MKNK1 [1] turned out to be 0.5 nM; against MKNK1 [2], 1.9 nM.

In the case of `CCN(CCOC)c1nccc2oc(-c3cnc4ccc(O[C@H]5Cc6ccccc6[C@@H]5N)nn34)cc12` [III-111, 2-(6-{[(1S,2S)-1-Amino-2,3-dihydro-1H-inden-2-yl]oxy}imidazo[1,2-b]pyridazin-3-yl)-N-ethyl-N-(2-methoxyethyl)furo[3,2-c]pyridin-4-amine], the values for the IC50 on MKNK1 [1] and on MKNK1 [2] were 42.2 nM and 3.8 nM, respectively.

Turning to `CCN(CCOC)c1nccc2oc(-c3cnc4ccc(O[C@H]5Cc6ccccc6[C@H]5N)nn34)cc12` [III-112, 2-(6-{[(1R,2S)-1-Amino-2,3-dihydro-1H-inden-2-yl]oxy}imidazo[1,2-b]pyridazin-3-yl)-N-ethyl-N-(2-methoxyethyl)furo[3,2-c]pyridin-4-amine], the values for the IC50 against MKNK1 [1] and on MKNK1 [2] were 88.1 nM and 15.6 nM, respectively.

Take `CCN(CCOC)c1nccc2oc(-c3cnc4ccc(OC[C@@H]5CNCC(=O)N5)nn34)cc12` [III-113, (6S)-6-{[(3-{4-[Ethyl(2-methoxyethyl)amino]furo[3,2-c]pyridin-2-yl}imidazo[1,2-b]pyridazin-6-yl)oxy]methyl}piperazin-2-one]: the IC50 against MKNK1 [1] is 0.3 nM; at MKNK1 [2], 0.5 nM.

Consider `CN(C)[C@H]1CCN(c2nccc3oc(-c4cnc5ccc(OCCCS(C)(=O)=O)nn45)cc23)C1` [III-114, (3S)-N,N-dimethyl-1-(2-{6-[3-(methylsulfonyl)propoxy]imidazo[1,2-b]pyridazin-3-yl}furo[3,2-c]pyridin-4-yl)pyrrolidin-3-amine], for which the IC50 against MKNK1 [1] worked out at 23.4 nM; on MKNK1 [2] it was 10.4 nM.

`C[C@H](N)COc1ccc2ncc(-c3cc4c(N5CC[C@H](N(C)C)C5)nccc4o3)n2n1` [III-115, (3S)-1-[2-(6-{[(2S)-2-aminopropyl]oxy}imidazo [1,2-b]pyridazin-3-yl)furo[3,2-c]pyridin-4-yl]-N,N-dimethylpyrrolidin-3-amine]: the IC50 at MKNK1 [1] was 84.1 nM; against MKNK1 [2] it was 18.6 nM.

For the compound `C[C@H](N)COc1ccc2ncc(-c3cc4c(N5CCN(C(C)(C)C)CC5)nccc4o3)n2n1` [III-116, (2S)-1-({3-[4-(4-tert-butylpiperazin-1-yl)furo[3,2-c]pyridin-2-yl]imidazo[1,2-b]pyridazin-6-yl}oxy)propan-2-amine], the IC50 turned out to be 114 nM against MKNK1 [1] and 27 nM on MKNK1 [2].

On to `C[C@H](N)COc1ccc2ncc(-c3cc4c(N5CCO[C@H](C)C5)nccc4o3)n2n1` [III-117, (2S)-1-[(3-{4-[(2R)-2-methylmorpholin-4-yl]furo[3,2-c]pyridin-2-yl}imidazo[1,2-b]pyridazin-6-yl)oxy]propan-2-amine], for which the IC50 on MKNK1 [1] was determined as 39.9 nM; against MKNK1 [2], 21.5 nM.

In the case of `C[C@@H]1CN(c2nccc3oc(-c4cnc5ccc(OC[C@H]6CCC(=O)N6)nn45)cc23)CCO1` [III-118, (5R)-5-{[(3-{4-[(2R)-2-methylmorpholin-4-yl]furo[3,2-c]pyridin-2-yl}imidazo[1,2-b]pyridazin-6-yl)oxy]methyl}pyrrolidin-2-one], the IC50 against MKNK1 [1] is 1 nM; against MKNK1 [2], 2.5 nM.

For the compound `C[C@@H]1CN(c2nccc3oc(-c4cnc5ccc(OCCCS(C)(=O)=O)nn45)cc23)CCO1` [III-119, 3-{4-[(2R)-2-methylmorpholin-4-yl]furo[3,2-c]pyridin-2-yl}-6-[3-(methylsulfonyl)propoxy] imidazo[1,2-b]pyridazine], the IC50 worked out at 17 nM at MKNK1 [1] and 8.8 nM against MKNK1 [2].

On to `COc1ccc2ncc(-c3cc4c(N5CCO[C@H](C)C5)nccc4o3)n2n1` [III-120, 6-methoxy-3-{4-[(2R)-2-methylmorpholin-4-yl]furo[3,2-c]pyridin-2-yl}imidazo[1,2-b]pyridazine], for which the 50% inhibitory concentration (IC50) on MKNK1 [1] stood at 7.4 nM; at MKNK1 [2], 11.2 nM.

On to `C[C@@H]1CN(c2nccc3oc(-c4cnc5ccc(OC[C@@H](C)N)nn45)cc23)CCO1` [III-121, (2R)-1-[(3-{4-[(2R)-2-methylmorpholin-4-yl]furo[3,2-c]pyridin-2-yl}imidazo[1,2-b]pyridazin-6-yl)oxy]propan-2-amine], for which the figures for the IC50 against MKNK1 [1] and at MKNK1 [2] were 12.8 nM and 11.6 nM, respectively.

Consider `C[C@@H]1CN(c2nccc3oc(-c4cnc5ccc(O[C@H]6C[C@H](N)C6)nn45)cc23)CCO1` [III-122, trans-3-[(3-{4-[(2R)-2-methylmorpholin-4-yl]furo[3,2-c]pyridin-2-yl}imidazo[1,2-b]pyridazin-6-yl)oxy]cyclobutanamine], for which the IC50 at MKNK1 [1] stood at 13 nM; at MKNK1 [2] it was 12.3 nM.

`C[C@H]1CN(c2nccc3oc(-c4cnc5ccc(OC[C@H]6CCC(=O)N6)nn45)cc23)CCO1` [III-123, (5R)-5-{[(3-{4-[(2S)-2-methylmorpholin-4-yl]furo[3,2-c]pyridin-2-yl}imidazo[1,2-b]pyridazin-6-yl)oxy]methyl}pyrrolidin-2-one]: the IC50 at MKNK1 [1] is 0.5 nM; on MKNK1 [2], 2.2 nM.

Take `C[C@@H](N)COc1ccc2ncc(-c3cc4c(N5CCOC(C)(C)C5)nccc4o3)n2n1` [III-124, (2R)-1-({3-[4-(2,2-dimethylmorpholin-4-yl)furo[3,2-c]pyridin-2-yl]imidazo[1,2-b]pyridazin-6-yl}oxy)propan-2-amine]: the IC50 came out at 13.9 nM against MKNK1 [1] and 16.8 nM at MKNK1 [2].

The IC50 is the midpoint of a concentration-inhibition curve. Lower therefore signals greater potency.

Source of the values: US20160287589A1, “SUBSTITUTED-IMIDAZOPYRIDAZINES” (BAYER PHARMA AKTIENGESELLSCHAFT, priority 2013, published 2016).
